The values below come from US6608049B2, “Indazoles” (Bayer Aktiengesellschaft, priority 2000, dated 2003).

SMILES strings stand for the structures.

This experiment is described as follows: T3 promoter assay cell test (luciferase reporter under a thyroid hormone-regulated promoter). It counts as cell-based. The conditions noted are these: Homo sapiens; HepG2 luciferase reporter; costimulator retinolic acid; incubation 48 or 72 hours; four replicates. The procedure:
The efficacy of the compounds according to the invention can be tested, for example, in vitro by the T3 promoter assay cell test described below:
The test is carried out using a stably transfected, human HepG2 hepatocarcinoma cell which expresses a luciferase gene under the control of a thyroid hormone-regulated promoter. The vector used for the transfection carries a minimal thymidine kinase promoter ahead of the luciferase gene having a thyroid hormone-responsive element (TRE) which consists of two inverted palindromes of 12 bp each and one 8 bp spacer.
For the test, the cell cultures are inoculated into 96 well plates in Eagle's Minimal Essential Medium with the following additives: glutamine, tricine [N-(tris-(hydroxymethyl)-methyl)-glycine], sodium pyruvate, non-essential amino acids (L-Ala, L-Asn, L-Asp, L-Pro, L-Ser, L-Glu, Gly), insulin, selenium and transferrin. The cultures are grown at 37° C. and under a 10% CO2 atmosphere for 48 hours. Serial dilutions of test substance or reference compound (T3, T4) and costimulator retinolic acid are then added to the test cultures and these are incubated for a further 48 or 72 hours as beforehand. Each substance concentration is tested in four replicates. For the determination of the luciferase induced by T3 or other substances, the cells are then lysed by addition of a Triton- and […] buffer (Promega) and immediately measured luminometrically. The EC50 values of each compound are calculated.
On the technique in general: Reporter assays use an easily measured gene product as a stand-in for the process of interest.
Usually EC50 stands for the concentration that produces a half-maximal response. Turning to `CCCc1n[nH]c2ccc(Oc3c(C)cc(N)cc3C)cc12` [Example 4, 5-(4-Amino-2,6-dimethylphenoxy)-3-propyl-1H-indazole], a half-maximal effect (EC50) was put at 115 nM. `CCOC(=O)C(=O)Nc1cc(C)c(Oc2ccc3[nH]nc(C(C)C)c3c2)c(C)c1` [Example 9, Ethyl ({3,5-dimethyl-4-[(3-isopropyl-1H-indazol-5-yl)oxy]phenyl}amino)(oxo)-acetate] yielded an EC50 of 190 nM.

`CCCCCc1n[nH]c2ccc(Oc3c(C)cc(NC(=O)C(=O)OCC)cc3C)cc12` [Example 11, Ethyl ({3,5-dimethyl-4-[(3-pentyl-1H-indazol-5-yl)oxy]phenyl}amino)(oxo)acetate] showed an EC50 of 10 nM.

`CCCCCc1n[nH]c2ccc(Oc3c(C)cc(NC(=O)C(=O)O)cc3C)cc12` [Example 11a, ({3,5-dimethyl-4-[(3-pentyl-1H-indazol-5-yl)oxy]phenyl}amino)(oxo)acetic acid] yielded an EC50 of 13 nM.

Turning to `CCCCCc1n[nH]c2ccc(Oc3c(C)cc(NCC(=O)OCC)cc3C)cc12` [Example 16, Ethyl ({3,5-dimethyl-4-[(3-pentyl-1H-indazol-5-yl)oxy]phenyl}amino)acetate], the EC50 is 10 nM. `CCCCCc1n[nH]c2ccc(Oc3c(C)cc(NC(=O)CC(=O)OC)cc3C)cc12` [Example 18, Methyl-({3,5-dimethyl-4-[(3-pentyl-1H-indazol-5-yl)oxy]phenyl}amino)-3-(oxo)-propionate] had an EC50 of 18 nM.
